Assay results from US6541203B2, “Detecting structural or synthetic information about chemical compounds” (President and Fellows of Harvard College, priority 1998, dated 2003).

Assays:
RNA molecules = settings: specific RNA molecules; cited from earlier work
anti-dig = experiment: Detection of hapten on TANTAGEL beads with anti-dig and AP-coupled secondary antibody; assay type: binding, mouse; settings: 100% coupling on the beads
Method: Ninety (90) micrometer TANTAGEL-amine beads were mixed with dig-NHS ester at different concentrations to covalently label the beads with dig. Dig-NHS was added in amounts sufficient to label 100%, 10%, 1%, 0.1%, 0.01% and 0.001% of the amino groups. The remaining amino groups were capped with acetic anhydride, and the beads were washed.
Dig-labeled beads were incubated with anti-dig (1 microgram/ml) in the presence of BSA and buffer. The beads were washed, incubated with alkaline phosphatase (AP)-coupled goat anti-mouse antibody, and washed again. Then a chromogenic precipitating substrate (commercially available) for detecting AP was added. Blue color on the beads indicates the presence of AP, and thus effective detection of the dig hapten by antibody.

Row | SMILES | Kd (RNA molecules) | Staining of beads (anti-dig)
1 | N=C(N)NCCC[C@@H](N)C(=O)O [D-arginine] | 1.7 µM | 
2 | c1cc2ccc3cccc4ccc(c1)c2c34 [pyrene] |  | no staining
